Results published in article PMC3431598, “Phylogenetic and Transcriptomic Analysis of Chemosensory Receptors in a Pair of Divergent Ant Species Reveals Sex-Specific Signatures of Odor Coding” (PLoS Genetics, 2012).

Molecular target: T1, HsOrco (with AgOR10) (Harpegnathos saltator, UniProt E2BJ30)
T1 construct: gene Orco; full-length CDS from worker antennal cDNA; cRNA in Xenopus oocytes with mosquito AgOR10; with Odorant receptor 10 (Anopheles gambiae)
T1 sequence (E2BJ30 1-479): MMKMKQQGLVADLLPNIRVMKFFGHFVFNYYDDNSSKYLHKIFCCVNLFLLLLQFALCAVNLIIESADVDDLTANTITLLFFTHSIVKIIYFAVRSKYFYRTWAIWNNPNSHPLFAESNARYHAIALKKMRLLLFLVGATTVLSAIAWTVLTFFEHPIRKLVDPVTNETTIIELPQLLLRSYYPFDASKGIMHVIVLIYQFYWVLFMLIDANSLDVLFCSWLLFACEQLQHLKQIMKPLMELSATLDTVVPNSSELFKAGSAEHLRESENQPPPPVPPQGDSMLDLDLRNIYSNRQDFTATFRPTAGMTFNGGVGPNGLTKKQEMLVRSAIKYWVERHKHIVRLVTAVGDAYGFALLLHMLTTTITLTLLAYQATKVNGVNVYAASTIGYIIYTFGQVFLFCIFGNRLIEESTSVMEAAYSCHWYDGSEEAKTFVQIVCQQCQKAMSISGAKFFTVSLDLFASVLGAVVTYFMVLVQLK
T1 sequence (B5U0U7 1-375 partner): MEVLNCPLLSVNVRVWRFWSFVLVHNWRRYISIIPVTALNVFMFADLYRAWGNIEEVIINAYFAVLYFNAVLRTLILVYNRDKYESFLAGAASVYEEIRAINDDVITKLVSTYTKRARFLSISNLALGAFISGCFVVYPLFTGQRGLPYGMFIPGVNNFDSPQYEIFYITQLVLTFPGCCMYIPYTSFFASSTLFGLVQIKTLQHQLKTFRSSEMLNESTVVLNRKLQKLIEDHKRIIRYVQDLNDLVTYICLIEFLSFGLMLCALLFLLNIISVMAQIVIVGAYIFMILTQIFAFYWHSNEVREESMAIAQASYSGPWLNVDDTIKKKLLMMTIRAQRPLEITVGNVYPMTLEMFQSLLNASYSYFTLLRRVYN
Assay: two-electrode voltage clamp, Xenopus oocytes
Assay type: cell-based
Conditions: Orco agonist; AgOR10 co-expressed; -80 mV

CCc1ccc(NC(=O)CSc2nnc(-c3cccnc3)n2CC)cc1 [VUAA1]
two-electrode voltage clamp, Xenopus oocytes: produced responses to VUAA1 (an agonist for Orco)
